Measurements: patent US10653637B2, “Preventives or remedies for hepatopathy” (priority 2003, dated 2020)

Columns and labels:
[1] = system: DMN-induced hepatic fibrosis/liver cirrhosis model; assay: Ghrelin administration in DMN-induced hepatic fibrosis/liver cirrhosis model (survival rate); format: in vivo, rat; settings: DMN-treated rats
Experimental: Ghrelin administration experiment using dimethylnitrosoamine (DMN)-induced hepatic fibrosis/liver cirrhosis model (Estimation of survival rate).
A hepatic fibrosis/liver cirrhosis rat model to be induced by DMN was prepared, rat ghrelin was subcutaneously injected, and the effect on hepatopathy was investigated.
Upon use, a dilution in which DMN (manufactured by Wako Pure Chemical Industries, Ltd.) was diluted with a physiological saline solution (manufactured by Otsuka Pharmaceutical Co., Ltd., physiological saline solution described in the Japanese Pharmacopoeia) to 1% concentration (v/v) was prepared, and this was intraperitoneafly administered to male rats (4 weeks old) so that DMN became 1 mL/kg. Administration was performed once a day, for consecutive three days in one week, and administration was repeated for 6 weeks, and the first time administration date was regarded as day 1.
Rat ghrelin (purchased from Peptide Institute Inc., Japan) was added to 5 weight % mannitol as a solvent to a concentration of 1 mg/mL, this was dispensed every necessary amount per one time, and freezing-stored at about −80° C. until its use. Upon use, this was thawed, and diluted with a physiological saline solution to a concentration of 30 μg/mL and 3 μg/mL to obtain a dosing solution. […]

rat hepatocytes = assay: Rat hepatocyte proliferation promoting activity (ki-67 immunostaining) after one week of repeated administration; format: in vivo; settings: ghrelin 10 μg/kg i.v. two times a day for 7 days; for Positive ratio (ki-67): % printed in b244 only; for Number of ki-67 positive cells: among 231±27 hepatocytes, eight places of liver section
Experimental: Rat hepatocyte proliferation promoting activity by repeated administration of ghrelin for one week
10 μg/kg of ghrelin was repeatedly administered intravenously to Wistar male rats two times a day for 7 days and, on the next day from administration completion, liver was isolated and fixed. Then, ki-67 protein as a peptide which is expressed at cell growth phase was immunostained.
For quantatively assessing hepatocyte proliferation activity by ghrelin, eight places of the liver section of one case of the physiological saline-administered group and one case of the ghrelin-administered group were arbitrarily selected, and among about 200 hepatocytes in a visual field, the number of ki-67 positive cells was counted under a microscope.

[2] = system: Wistar male rats after 70% hepatectomy; assay: Liver weight after hepatectomy under 40% restricted diet; format: in vivo, rat; settings: ghrelin 30 μg/kg s.c. two times a day for 3 days after 70% hepatectomy, four days after
Experimental: Liver Weight after Hepatectomy
Seventy % of liver was excised under anesthesia in Wistar male rats, and 30 μg/kg of ghrelin or a physiological saline was subcutaneously injected two times a day for 3 days under 40% restricted diet. Four days after, rat liver was isolated, and the liver weight was measured.

PCNA mRNA = assay: Expression of hepatocyte proliferation marker PCNA mRNA in liver (real time RT-PCR); format: in vivo, rat; settings: ghrelin 30 μg/kg s.c., DMN-induced hepatic fibrosis rats
Experimental: (§1) Amount of expression of hepatocyte proliferation marker (PCNA) and HGF
(§2) Amounts of expression of a PCNA mRNA and a HGF mRNA in the liver after subcutaneous injection of a physiological saline and ghrelin to DMN-induced hepatic fibrosis rats were measured by the real time RT-PCR method.

HGF mRNA = assay: Expression of HGF mRNA in liver (real time RT-PCR); format: in vivo, rat; settings: ghrelin 30 μg/kg s.c., DMN-induced hepatic fibrosis rats
Experimental: as §1, §2

Wistar male rats = assay: Organ blood flow (microspheres); format: in vivo, rat; settings: ghrelin 30 μg/kg s.c., under anesthesia; for Hepatic blood flow / Spleen blood flow / Stomach blood flow: mean ± standard deviation, 6 rats per group
[3] = system: DMN-induced hepatic fibrosis rat; assay: Ghrelin administration in DMN-induced hepatic fibrosis/liver cirrhosis model (organ weight, hematology, serum biochemistry); format: in vivo; settings: 35 days, DMN treatment
Experimental: Ghrelin administration experiment using DMN-induced hepatic fibrosis/liver cirrhosis model (Estimation of various parameters)
According to the same manner as that of Example 1 except that administration days were changed from 8 weeks to 35 days, an experiment was performed, and the effect of rat ghrelin on hepatopathy was estimated from a viewpoint of organ weight, hematology and serum biochemistry. A DMN-untreated group (normal rat) was used as a control group.

[4] = ghrelin 3 μg/kg s.c. once a day
[5] = ghrelin 3 μg/kg s.c. once a day, mean±S.E.
[6] = ghrelin 30 μg/kg s.c. once a day
[7] = ghrelin 30 μg/kg s.c. once a day, listed as ghrelin
[8] = ghrelin 30 μg/kg s.c. once a day, mean±S.E.
[9] = ghrelin 30 μg/kg s.c. once a day, mean±S.E., listed as ghrelin
[10] = ghrelin administration, dose not given

Which “survived at 56 days” value ([1]; ghrelin 3 μg/kg s.c. once a day from day 1 over 8 weeks) does the source give for Ghrelin here?
The value was 75%.

And the “survival at 56 days” value ([1]; ghrelin 30 μg/kg s.c. once a day from day 1 over 8 weeks)?
Its value is “all cases survived”.

And the “Positive ratio (ki-67)” value (rat hepatocytes)?
The value was 9.28 ± 3.26%.

And the “Positive ratio (ki-67)” value (rat hepatocytes; listed as ghrelin)?
Its value is 9.28±3.26%.

What about the “Number of ki-67 positive cells” value (rat hepatocytes) of the same substance?
Its value is 20.9 ± 6.1.

What about the “Number of ki-67 positive cells” value (rat hepatocytes; listed as ghrelin) of the same substance?
Its value is 20.9±6.1.

What about the Liver weight [2] of the same substance?
Its Liver weight is 2.464 ± 0.133.

What about the Liver weight ([2]; listed as ghrelin) of the same substance?
Its Liver weight is “the liver weight was increased”.

And the “PCNA mRNA (amount of expression in the liver)” value (PCNA mRNA)?
Its value is 2.083 ± 0.533.

And the “PCNA mRNA (amount of expression in the liver)” value (PCNA mRNA; listed as ghrelin)?
The value was “tended to be increased”.

What about the “HGF mRNA (amount of expression in the liver)” value (HGF mRNA) of the same substance?
Its value is 2.025 ± 0.595.

What about the “HGF mRNA (amount of expression in the liver)” value (HGF mRNA; listed as ghrelin) of the same substance?
The value was “increased”.

What about the Hepatic blood flow (Wistar male rats) of the same substance?
Its Hepatic blood flow is 1.049 ± 0.414 mL/min/kg.

What about the Spleen blood flow (Wistar male rats) of the same substance?
Its Spleen blood flow is 1.099 ± 0.264 mL/min/kg.

What about the Stomach blood flow (Wistar male rats) of the same substance?
The Stomach blood flow was 1.064 ± 0.486 mL/min/kg.

What about the Hepatic blood flow (Wistar male rats; listed as ghrelin) of the same substance?
The Hepatic blood flow was “increased”.

What about the Spleen blood flow (Wistar male rats; listed as ghrelin) of the same substance?
The Spleen blood flow was “increased”.

What about the Stomach blood flow (Wistar male rats; listed as ghrelin) of the same substance?
The Stomach blood flow was “increased”.

What about the “blood flow in jejunum” value (Wistar male rats; versus physiological saline) of the same substance?
The value was “a tendency of blood flow increase”.

What about the “Ascites (appearance frequency)” value [3, 4] of the same substance?
Its value is 2/7.

What about the Erythrocyte [3, 4] of the same substance?
The Erythrocyte was 6.4 ± 0.2 ×10^6/μL.

What about the Fibrinogen [3, 4] of the same substance?
The Fibrinogen was 166 ± 9.5 mg/dL.

And the Hepaplastin time [3, 4]?
Its Hepaplastin time is 86.2 ± 11.8 s.

And the Leukocyte [3, 4]?
Its Leukocyte is 7.3 ± 0.6 ×10^3/μL.

And the Platelet [3, 4]?
The Platelet was 52.3 ± 6.2 ×10^4/μL.

What about the “Spleen weight increase as compared with normal rats” value [3, 4] of the same substance?
The value was “more than 2 fold”.

And the “Δ liver weight” value [3, 5]?
The value was 13.6 ± 0.7 g.

And the “Δ spleen weight” value [3, 5]?
Its value is 2.20 ± 0.08 g.

And the “Δ liver weight (g)” value ([3]; ghrelin 3 μg/kg s.c. once a day, mean±S.E., listed as ghrelin)?
The value was “reduced as compared with a normal rat”.

What about the “Ascites (appearance frequency)” value [3, 6] of the same substance?
The value was 0/7.

What about the Erythrocyte [3, 6] of the same substance?
Its Erythrocyte is 6.8 ± 0.3 ×10^6/μL.

What about the Fibrinogen [3, 6] of the same substance?
The Fibrinogen was 207 ± 16.3 mg/dL.

And the Hepaplastin time [3, 6]?
The Hepaplastin time was 77.8 ± 3.2 s.

What about the Leukocyte [3, 6] of the same substance?
The Leukocyte was 6.6 ± 1.2 ×10^3/μL.

And the Platelet [3, 6]?
The Platelet was 89.6 ± 5.5 ×10^4/μL.

What about the “Ascites (appearance frequency)” value [3, 7] of the same substance?
The value was “ascites did not appear”.

What about the Erythrocyte [3, 7] of the same substance?
The Erythrocyte was “returned to a normal level”.

What about the Leukocyte [3, 7] of the same substance?
Its Leukocyte is “returned to a normal level”.

What about the Platelet [3, 7] of the same substance?
Its Platelet is “the number of platelets was recovered”.

What about the “Δ liver weight” value [3, 8] of the same substance?
The value was 14.3 ± 0.6 g.

And the “Δ spleen weight” value [3, 8]?
Its value is 1.83 ± 0.12 g.

And the “Δ liver weight (g)” value [3, 9]?
The value was “reduction in the liver weight was suppressed”.

What about the “Δ spleen weight (g)” value [3, 9] of the same substance?
The value was “increase was slightly suppressed”.

What about the “hepaplastin time (in words)” value [3, 10] of the same substance?
Its value is “tended to be normalized”.

What about the “serum fibrinogen (in words)” value [3, 10] of the same substance?
The value was “a tendency that fibrinogen was recovered to normalization”.
